In PubChem BioAssay (NCI):
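Compound exposure: 48 hours, 5 concentrations, 96-well plates. TGI: concentration producing complete growth inhibition.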

Experiments:
Assay in all cases: inhibition of tumour cell growth, NCI panel, 48 h
HCT-116 colon = tested on: HCT-116 colon
RXF-631 renal = tested on: RXF-631 renal
RXF 393 renal = tested on: RXF 393 renal
786-0 renal = tested on: 786-0 renal
UACC-257 melanoma = tested on: UACC-257 melanoma
HT29 colon = tested on: HT29 colon
MALME-3M melanoma = tested on: MALME-3M melanoma
SNB-19 CNS = tested on: SNB-19 CNS
IGROV1 ovarian = tested on: IGROV1 ovarian
SF-268 CNS = tested on: SF-268 CNS
CCRF-CEM leukemia = tested on: CCRF-CEM leukemia
UO-31 renal = tested on: UO-31 renal
SF-295 CNS = tested on: SF-295 CNS
DMS 273 small cell lung = tested on: DMS 273 small cell lung
LXFL 529 NSCLC = tested on: LXFL 529 NSCLC
DMS 114 small cell lung = tested on: DMS 114 small cell lung
COLO 205 colon = tested on: COLO 205 colon
DLD-1 colon = tested on: DLD-1 colon
M14 melanoma = tested on: M14 melanoma
K-562 leukemia = tested on: K-562 leukemia
NCI-H460 lung = tested on: NCI-H460 lung
SF-539 CNS = tested on: SF-539 CNS
HCT-15 colon = tested on: HCT-15 colon
SN12C renal = tested on: SN12C renal
KM20L2 colon = tested on: KM20L2 colon
HCC-2998 colon = tested on: HCC-2998 colon
M19-MEL melanoma = tested on: M19-MEL melanoma
KM12 colon = tested on: KM12 colon
CAKI-1 renal = tested on: CAKI-1 renal
UACC-62 melanoma = tested on: UACC-62 melanoma
EKVX NSCLC = tested on: EKVX NSCLC
RPMI-8226 leukemia = tested on: RPMI-8226 leukemia
TK-10 renal = tested on: TK-10 renal
U251 CNS = tested on: U251 CNS
MOLT-4 leukemia = tested on: MOLT-4 leukemia
SNB-75 CNS = tested on: SNB-75 CNS
OVCAR-4 ovarian = tested on: OVCAR-4 ovarian
SW-620 colon = tested on: SW-620 colon
HOP-62 NSCLC = tested on: HOP-62 NSCLC
OVCAR-3 ovarian = tested on: OVCAR-3 ovarian
HOP-92 NSCLC = tested on: HOP-92 NSCLC
SK-OV-3 ovarian = tested on: SK-OV-3 ovarian
NCI-H23 lung = tested on: NCI-H23 lung
SK-MEL-2 melanoma = tested on: SK-MEL-2 melanoma
OVCAR-8 ovarian = tested on: OVCAR-8 ovarian
LOX IMVI melanoma = tested on: LOX IMVI melanoma
SNB-78 CNS = tested on: SNB-78 CNS
A549 NSCLC = tested on: A549 NSCLC
NCI-H522 lung = tested on: NCI-H522 lung
OVCAR-5 ovarian = tested on: OVCAR-5 ovarian
A498 renal = tested on: A498 renal
SK-MEL-28 melanoma = tested on: SK-MEL-28 melanoma
SK-MEL-5 melanoma = tested on: SK-MEL-5 melanoma
HL-60(TB) leukemia = tested on: HL-60(TB) leukemia
ACHN renal = tested on: ACHN renal

SMILES: CN(C)c1ccc(/C=C(\NC(=O)c2ccccc2)c2nc3ccc4c(c3[nH]2)C(=O)c2ccccc2C4=O)cc1
- TGI (HCT-116 colon): > 100 µM
- TGI (RXF-631 renal): > 100 µM
- TGI (RXF 393 renal): 93.8 µM
- TGI (786-0 renal): > 100 µM
- TGI (UACC-257 melanoma): > 100 µM
- TGI (HT29 colon): > 100 µM
- TGI (MALME-3M melanoma): > 100 µM
- TGI (SNB-19 CNS): > 100 µM
- TGI (IGROV1 ovarian): > 100 µM
- TGI (SF-268 CNS): > 100 µM
- TGI (CCRF-CEM leukemia): > 100 µM
- TGI (UO-31 renal): 7.37 µM
- TGI (SF-295 CNS): > 100 µM
- TGI (DMS 273 small cell lung): > 100 µM
- TGI (LXFL 529 NSCLC): > 100 µM
- TGI (DMS 114 small cell lung): > 100 µM
- TGI (COLO 205 colon): > 100 µM
- TGI (DLD-1 colon): 55.7 µM
- TGI (M14 melanoma): > 100 µM
- TGI (K-562 leukemia): > 100 µM
- TGI (NCI-H460 lung): > 100 µM
- TGI (SF-539 CNS): > 100 µM
- TGI (HCT-15 colon): > 100 µM
- TGI (SN12C renal): > 100 µM
- TGI (KM20L2 colon): > 100 µM
- TGI (HCC-2998 colon): > 100 µM
- TGI (M19-MEL melanoma): > 100 µM
- TGI (KM12 colon): > 100 µM
- TGI (CAKI-1 renal): > 100 µM
- TGI (UACC-62 melanoma): > 100 µM
- TGI (EKVX NSCLC): > 100 µM
- TGI (RPMI-8226 leukemia): > 100 µM
- TGI (TK-10 renal): > 100 µM
- TGI (U251 CNS): > 100 µM
- TGI (MOLT-4 leukemia): 31.3 µM
- TGI (SNB-75 CNS): 64.2 µM
- TGI (OVCAR-4 ovarian): > 100 µM
- TGI (SW-620 colon): > 100 µM
- TGI (HOP-62 NSCLC): > 100 µM
- TGI (OVCAR-3 ovarian): > 100 µM
- TGI (HOP-92 NSCLC): 97.3 µM
- TGI (SK-OV-3 ovarian): > 100 µM
- TGI (NCI-H23 lung): > 100 µM
- TGI (SK-MEL-2 melanoma): > 100 µM
- TGI (OVCAR-8 ovarian): > 100 µM
- TGI (LOX IMVI melanoma): > 100 µM
- TGI (SNB-78 CNS): > 100 µM
- TGI (A549 NSCLC): > 100 µM
- TGI (NCI-H522 lung): > 100 µM
- TGI (OVCAR-5 ovarian): > 100 µM
- TGI (A498 renal): > 100 µM
- TGI (SK-MEL-28 melanoma): > 100 µM
- TGI (SK-MEL-5 melanoma): > 100 µM

SMILES: OC1=CN=COc2ccccc21
- TGI (HL-60(TB) leukemia): > 100 µM
- TGI (HCT-116 colon): > 100 µM
- TGI (RXF-631 renal): > 100 µM
- TGI (RXF 393 renal): > 100 µM
- TGI (786-0 renal): > 100 µM
- TGI (UACC-257 melanoma): > 100 µM
- TGI (HT29 colon): > 100 µM
- TGI (MALME-3M melanoma): > 100 µM
- TGI (SNB-19 CNS): > 100 µM
- TGI (IGROV1 ovarian): > 100 µM
- TGI (SF-268 CNS): > 100 µM
- TGI (CCRF-CEM leukemia): > 100 µM
- TGI (UO-31 renal): > 100 µM
- TGI (SF-295 CNS): > 100 µM
- TGI (DMS 273 small cell lung): > 100 µM
- TGI (LXFL 529 NSCLC): > 100 µM
- TGI (DMS 114 small cell lung): > 100 µM
- TGI (COLO 205 colon): > 100 µM
- TGI (DLD-1 colon): > 100 µM
- TGI (ACHN renal): > 100 µM
- TGI (M14 melanoma): > 100 µM
- TGI (K-562 leukemia): > 100 µM
- TGI (NCI-H460 lung): > 100 µM
- TGI (SF-539 CNS): > 100 µM
- TGI (HCT-15 colon): > 100 µM
- TGI (SN12C renal): > 100 µM
- TGI (KM20L2 colon): > 100 µM
- TGI (HCC-2998 colon): > 100 µM
- TGI (M19-MEL melanoma): > 100 µM
- TGI (KM12 colon): > 100 µM
- TGI (UACC-62 melanoma): > 100 µM
- TGI (EKVX NSCLC): > 100 µM
- TGI (RPMI-8226 leukemia): > 100 µM
- TGI (TK-10 renal): > 100 µM
- TGI (U251 CNS): > 100 µM
- TGI (MOLT-4 leukemia): > 100 µM
- TGI (SNB-75 CNS): > 100 µM
- TGI (OVCAR-4 ovarian): > 100 µM
- TGI (SW-620 colon): > 100 µM
- TGI (HOP-62 NSCLC): > 100 µM
- TGI (OVCAR-3 ovarian): > 100 µM
- TGI (HOP-92 NSCLC): > 100 µM
- TGI (SK-OV-3 ovarian): > 100 µM
- TGI (NCI-H23 lung): > 100 µM
- TGI (SK-MEL-2 melanoma): > 100 µM
- TGI (OVCAR-8 ovarian): > 100 µM
- TGI (LOX IMVI melanoma): > 100 µM
- TGI (SNB-78 CNS): > 100 µM
- TGI (A549 NSCLC): > 100 µM
- TGI (A498 renal): > 100 µM
- TGI (SK-MEL-28 melanoma): > 100 µM
